Laboratory results reported in ChEMBL document CHEMBL3994588, “Importance of 5/6-aryl substitution on the pharmacological profile of 4'-((2-propyl-1H-benzo[d]imidazol-1-yl)methyl)-[1,1'-biphenyl]-2-carboxylic acid derived PPARγ agonists” (Eur J Med Chem, 2017).

Key:
[1] = target: T1, Peroxisome proliferator-activated receptor gamma (Homo sapiens) (UniProt P37231); test: (§1) Transactivation of Gal4 fused human PPARgamma LBD expressed in African green monkey COS7 cells after 42 hrs by dual luciferase reporter gene assay; format: cell-based
T1 sequence (whole entry): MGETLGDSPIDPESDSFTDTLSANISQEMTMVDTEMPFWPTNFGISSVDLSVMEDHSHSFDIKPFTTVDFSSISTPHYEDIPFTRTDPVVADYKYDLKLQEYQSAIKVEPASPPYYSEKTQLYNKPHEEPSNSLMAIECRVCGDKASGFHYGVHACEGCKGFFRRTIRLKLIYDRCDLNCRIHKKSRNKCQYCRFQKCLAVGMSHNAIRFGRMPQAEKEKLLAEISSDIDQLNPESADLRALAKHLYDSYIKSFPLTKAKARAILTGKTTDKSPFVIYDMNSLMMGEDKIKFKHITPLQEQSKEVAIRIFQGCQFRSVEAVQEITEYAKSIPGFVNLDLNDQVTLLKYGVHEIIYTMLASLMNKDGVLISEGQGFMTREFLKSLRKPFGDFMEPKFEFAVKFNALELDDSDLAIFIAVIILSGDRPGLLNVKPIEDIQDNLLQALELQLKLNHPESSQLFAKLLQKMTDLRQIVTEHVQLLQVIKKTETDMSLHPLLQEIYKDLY

[2] = target: T2, Peroxisome proliferator-activated receptor gamma (Homo sapiens, UniProt P37231); test: as §1; format: cell-based
T2 sequence (P37231 whole entry): T1 sequence (whole entry)

Activity [1] | EC50 ([2]; read-out: EC50) | EC50 [2] | SMILES
Dose-dependent effect | 1.01 µM |  | CCCc1nc2ccc(-c3ccc(OC)cc3)cc2n1Cc1ccc(-c2ccccc2C(=O)O)cc1
Dose-dependent effect | 0.19 µM |  | CCCc1nc2cc(-c3ccc(Cl)cc3)ccc2n1Cc1ccc(-c2ccccc2C(=O)O)cc1
Dose-dependent effect | 1.39 µM |  | CCCc1nc2ccc(-c3ccccc3Cl)cc2n1Cc1ccc(-c2ccccc2C(=O)O)cc1
Dose-dependent effect | 2.98 µM |  | CCCc1nc2ccc(-c3ccc(O)cc3)cc2n1Cc1ccc(-c2ccccc2C(=O)O)cc1
 |  | Not Active | CCCc1nc2cc(-c3cccc(Cl)c3)ccc2n1Cc1ccc(-c2ccccc2C(=O)O)cc1
Dose-dependent effect | 1.35 µM |  | CCCc1nc2ccc(-c3cccc(OC)c3)cc2n1Cc1ccc(-c2ccccc2C(=O)O)cc1
Dose-dependent effect | 0.77 µM |  | CCCc1nc2ccc(-c3cccc(Cl)c3)cc2n1Cc1ccc(-c2ccccc2C(=O)O)cc1
Dose-dependent effect | 4.09 µM |  | CCCc1nc2ccc(-c3cccc(O)c3)cc2n1Cc1ccc(-c2ccccc2C(=O)O)cc1
Dose-dependent effect | 0.29 µM |  | CCCc1nc2cc(-c3cccc(OC)c3)ccc2n1Cc1ccc(-c2ccccc2C(=O)O)cc1
 | 4.97 µM |  | CCCc1nc2c(C)cc(-c3nc4ccccc4n3C)cc2n1Cc1ccc(-c2ccccc2C(=O)O)cc1
Dose-dependent effect | 1.25 µM |  | CCCc1nc2cc(-c3cccc(O)c3)ccc2n1Cc1ccc(-c2ccccc2C(=O)O)cc1
Dose-dependent effect | 6.44 µM |  | CCCc1nc2ccccc2n1Cc1ccc(-c2ccccc2C(=O)O)cc1
Dose-dependent effect | 1.15 µM |  | CCCc1nc2ccc(-c3ccc(Cl)cc3)cc2n1Cc1ccc(-c2ccccc2C(=O)O)cc1
Dose-dependent effect | 0.93 µM |  | CCCc1nc2cc(-c3ccccc3Cl)ccc2n1Cc1ccc(-c2ccccc2C(=O)O)cc1
Dose-dependent effect | 0.41 µM |  | CCCc1nc2cc(-c3ccc(OC)cc3)ccc2n1Cc1ccc(-c2ccccc2C(=O)O)cc1
Dose-dependent effect | 1.01 µM |  | CCCc1nc2cc(-c3ccc(O)cc3)ccc2n1Cc1ccc(-c2ccccc2C(=O)O)cc1
